Inconclusive results and toxic doses are left out. Cut-off read from the data, not from the text of the source: active = T/C of 150% or more; inactive = T/C below 125%.
Tested on: L1210 leukemia ip in BDF1 mice, survival T/C
Assay: NCI In Vivo Anticancer Drug Screen. Data for tumor model L1210 Leukemia (intraperitoneal) in B6D2F1 (BDF1) mice
Conditions: endpoint: mean survival time, higher = longer survival
Description: The antitumor activity of compounds was measured in mice bearing transplantable tumors. Survival or tumor size were measured and the results are expressed as the measurement made in the treated group (T) divided by the measurement made in the vehicle treated control group (C). The tumor model used in this assay is L1210 Leukemia (intraperitoneal) in B6D2F1 (BDF1) mice

[1] = dose: 100.0 mg/kg/injection, schedule: Q04DX002 (ip), vehicle: saline with Tween-80
[2] = dose: 100.0 mg/kg/injection, schedule: Q04DX003 (ip), vehicle: saline with Tween-80
[3] = dose: 200.0 mg/kg/injection, schedule: Q04DX003 (ip), vehicle: saline with Tween-80
[4] = dose: 400.0 mg/kg/injection, schedule: Q04DX003 (ip), vehicle: saline with Tween-80
[5] = dose: 100.0 mg/kg/injection, schedule: Q04DX002 (ip), vehicle: Klucel (hydroxypropylcellulose) (HPC)
[6] = dose: 200.0 mg/kg/injection, schedule: Q04DX002 (ip), vehicle: Klucel (hydroxypropylcellulose) (HPC)
[7] = dose: 400.0 mg/kg/injection, schedule: Q04DX002 (ip), vehicle: Klucel (hydroxypropylcellulose) (HPC)
[8] = dose: 100.0 mg/kg/injection, schedule: Q01DX001 (ip), vehicle: saline
[9] = dose: 200.0 mg/kg/injection, schedule: Q01DX001 (ip), vehicle: saline
[10] = dose: 400.0 mg/kg/injection, schedule: Q01DX001 (ip), vehicle: saline
[11] = dose: 100.0 mg/kg/injection, schedule: Q04DX003 (ip), vehicle: Klucel (hydroxypropylcellulose) (HPC)
[12] = dose: 200.0 mg/kg/injection, schedule: Q04DX003 (ip), vehicle: Klucel (hydroxypropylcellulose) (HPC)
[13] = dose: 400.0 mg/kg/injection, schedule: Q04DX003 (ip), vehicle: Klucel (hydroxypropylcellulose) (HPC)

Measured: T/C

CCCC(C=O)(CCN1CCCC1)c1cccc2ccccc12 (centres undefined)
inactive: dose: 25.0 mg/kg/injection, schedule: Q04DX002 (ip), vehicle: saline with Tween-80 100 % of control | dose: 50.0 mg/kg/injection, schedule: Q04DX002 (ip), vehicle: saline with Tween-80 94 % of control | [1] 88 % of control

CCCCCCCCCCCCCCCCCC[Se]CCCCCCCCCCCCCCCCCC
inactive: [2] 88 % of control | [3] 92 % of control | [4] 93 % of control

COc1ccc(CCOC(C)=O)cc1
inactive: dose: 100.0 mg/kg/injection, schedule: Q04DX002 (ip), vehicle: saline 97 % of control | dose: 200.0 mg/kg/injection, schedule: Q04DX002 (ip), vehicle: saline 102 % of control | dose: 400.0 mg/kg/injection, schedule: Q04DX002 (ip), vehicle: saline 102 % of control

O=C(Nc1cccc([N+](=O)[O-])c1)Nc1cccc(C(F)(F)F)c1
inactive: [5] 101 % of control | [6] 99 % of control | [7] 96 % of control

NC(N)=N/N=C/c1cccc(Cl)c1
inactive: dose: 3.75 mg/kg/injection, schedule: Q01DX Z (ip), vehicle: saline 92 % of control | dose: 7.5 mg/kg/injection, schedule: Q01DX Z (ip), vehicle: saline 94 % of control | dose: 15.0 mg/kg/injection, schedule: Q01DX Z (ip), vehicle: saline 94 % of control | dose: 15.0 mg/kg/injection, schedule: Q01DX Z (oral), vehicle: saline 98 % of control | dose: 30.0 mg/kg/injection, schedule: Q01DX Z (ip), vehicle: saline 100 % of control | dose: 30.0 mg/kg/injection, schedule: Q01DX Z (oral), vehicle: saline 98 % of control | dose: 60.0 mg/kg/injection, schedule: Q01DX Z (oral), vehicle: saline 98 % of control | dose: 120.0 mg/kg/injection, schedule: Q01DX Z (oral), vehicle: saline 102 % of control

O=C(Nc1ccccc1F)OCCOc1ccc([N+](=O)[O-])cc1
inactive: dose: 100.0 mg/kg/injection, schedule: Q01DX009 (ip), vehicle: Klucel (hydroxypropylcellulose) (HPC) 96 % of control | dose: 200.0 mg/kg/injection, schedule: Q01DX009 (ip), vehicle: Klucel (hydroxypropylcellulose) (HPC) 100 % of control | dose: 400.0 mg/kg/injection, schedule: Q01DX009 (ip), vehicle: Klucel (hydroxypropylcellulose) (HPC) 94 % of control

CC(=O)OCC1OC(N2C(=O)/C(=C(/C)c3ccco3)SC2=S)C(OC(C)=O)C(OC(C)=O)C1OC(C)=O (centres undefined)
inactive: dose: 25.0 mg/kg/injection, schedule: Q01DX005 (ip), vehicle: other 103 % of control | dose: 50.0 mg/kg/injection, schedule: Q01DX005 (ip), vehicle: other 98 % of control | dose: 100.0 mg/kg/injection, schedule: Q01DX005 (ip), vehicle: other 98 % of control | dose: 200.0 mg/kg/injection, schedule: Q01DX005 (ip), vehicle: other 98 % of control | dose: 400.0 mg/kg/injection, schedule: Q01DX005 (ip), vehicle: other 101 % of control

NS(=O)(=O)c1cc2c(cc1Cl)NC(CC1CCCC1)NS2(=O)=O (centres undefined)
inactive: [8] 105 % of control | [9] 100 % of control | [10] 107 % of control

CC(=O)CC(=O)Nc1cc(C(F)(F)F)ccc1Cl
inactive: [8] 97 % of control | [9] 101 % of control | [10] 101 % of control

CC(=O)NC(C=O)C(OC(C)=O)C(OC(C)=O)C(COC(C)=O)OC(C)=O (centres undefined)
inactive: [1] 100 % of control | dose: 200.0 mg/kg/injection, schedule: Q04DX002 (ip), vehicle: saline with Tween-80 107 % of control | dose: 400.0 mg/kg/injection, schedule: Q04DX002 (ip), vehicle: saline with Tween-80 96 % of control

CCNC(=O)NC(=O)CN1CCOCC1
inactive: dose: 100.0 mg/kg/injection, schedule: Q04DX003 (ip), vehicle: saline sonified 100 % of control | dose: 200.0 mg/kg/injection, schedule: Q04DX003 (ip), vehicle: saline sonified 102 % of control | dose: 400.0 mg/kg/injection, schedule: Q04DX003 (ip), vehicle: saline sonified 100 % of control

COc1ccc2cc1Oc1ccc(cc1)CC1c3c(cc(OC)c4c3Oc3cc5c(cc3O4)CCNC5C2)CCN1C (centres undefined)
inactive: [5] 98 % of control | [6] 98 % of control | [7] 91 % of control

COC1COC(OC)C(OS(C)(=O)=O)C1OC (centres undefined)
inactive: dose: 100.0 mg/kg/injection, schedule: Q01DX001 (ip), vehicle: carboxymethylcellulose (CMC) 106 % of control | dose: 200.0 mg/kg/injection, schedule: Q01DX001 (ip), vehicle: carboxymethylcellulose (CMC) 98 % of control | dose: 400.0 mg/kg/injection, schedule: Q01DX001 (ip), vehicle: carboxymethylcellulose (CMC) 101 % of control

Cc1oc2ccc(O)c(N=Nc3ccc(Cl)cc3)c2c1C
inactive: [11] 100 % of control | [12] 90 % of control | [13] 95 % of control

CCOC(=O)Nc1cc(NC(c2ccc(Cl)cc2)c2ccc(Cl)cc2)c2[nH]cnc2n1
inactive: dose: 25.0 mg/kg/injection, schedule: Q01DX009 (ip), vehicle: other 96 % of control | dose: 50.0 mg/kg/injection, schedule: Q01DX009 (ip), vehicle: other 111 % of control

CN(C)/N=N/c1nc(CCCc2ccccc2)[nH]c1C(N)=O
inactive: [2] 98 % of control | [3] 103 % of control | [4] 110 % of control

CCCCCCC(/C=N/N=C(N)N)=N\N=C(N)N
inactive: dose: 15.0 mg/kg/injection, schedule: Q01DX Z (ip), vehicle: carboxymethylcellulose (CMC) 100 % of control | dose: 15.0 mg/kg/injection, schedule: Q01DX Z (oral), vehicle: carboxymethylcellulose (CMC) 101 % of control | dose: 30.0 mg/kg/injection, schedule: Q01DX Z (ip), vehicle: carboxymethylcellulose (CMC) 95 % of control | dose: 30.0 mg/kg/injection, schedule: Q01DX Z (oral), vehicle: carboxymethylcellulose (CMC) 93 % of control | dose: 60.0 mg/kg/injection, schedule: Q01DX Z (oral), vehicle: carboxymethylcellulose (CMC) 109 % of control

CC1(C)CC(C)(c2ccc(-n3c(-c4ccccc4)nc4ccccc4c3=O)cc2)c2ccccc2S1 (centres undefined)
inactive: [8] 91 % of control | [9] 91 % of control | [10] 87 % of control

O=c1c2c([nH]c3ccccc13)CCCC2
inactive: dose: 100.0 mg/kg/injection, schedule: Q01DX001 (ip), vehicle: Klucel (hydroxypropylcellulose) (HPC) 97 % of control | [11] 97 % of control | dose: 200.0 mg/kg/injection, schedule: Q01DX001 (ip), vehicle: Klucel (hydroxypropylcellulose) (HPC) 88 % of control | [12] 94 % of control | dose: 400.0 mg/kg/injection, schedule: Q01DX001 (ip), vehicle: Klucel (hydroxypropylcellulose) (HPC) 93 % of control | [13] 101 % of control

N#CCCC1C(C#N)C2CC1C1C3CCC(C3)C21 (centres undefined)
inactive: dose: 100.0 mg/kg/injection, schedule: Q01DX009 (ip), vehicle: other 100 % of control | dose: 200.0 mg/kg/injection, schedule: Q01DX009 (ip), vehicle: other 101 % of control | dose: 400.0 mg/kg/injection, schedule: Q01DX009 (ip), vehicle: other 90 % of control

CC(OC(=O)Nc1ccc(S(=O)(=O)NC2CCCCC2)cc1)(c1ccccc1)C1CCCCC1 (centres undefined)
inactive: [8] 105 % of control | [9] 105 % of control | [10] 100 % of control
